Results reported in article PMC3041857 (Journal of medicinal chemistry, 2011).

Assays:
[1] = tested on: PrP^Sc load in ScN2a-cl3 cells; format: cell-based, murine
[2] = mouse, in vivo

| Compound | Antiprion activity (in words) [1] | also measured |
| --- | --- | --- |
| FC(F)(F)Oc1ccc(-c2csc(Nc3cc4ccccc4cn3)n2)cc1 [Compound 31, Isoquinolin-3-yl-[4-(4-trifluoromethoxyphenyl)-thiazol-2-yl]-amine] | inactive | – |
| [4-(3,4-dimethoxyphenyl)-thiazol-2-yl]-pyridin-3-yl-amine [Compound 7] | – | EC50 ([1]; read-out: ScN2a-cl3 EC50): 1220 nM |
| Cc1ccc(Nc2nc(-c3cc(-c4ccccc4)no3)cs2)nc1 [Compound 27, (5-Methylpyridin-2-yl)-[4-(3-phenylisoxazol-5-yl)-thiazol-2-yl]-amine] | – | Mean brain concentration in excess of in vitro EC50 ([2]; FVB): ≤ 25 fold; Brain versus plasma concentration [2]: generally exceeded those in plasma |
| Cc1ccc(Nc2nc(C)cs2)nc1 [Compound 29, (5-Methylpyridin-2-yl)-(4-methylthiazol-2-yl)-amine] | inactive | – |
| Cc1csc(Nc2cc3ccccc3cn2)n1 [Compound 36, Isoquinolin-3-yl-(4-methylthiazol-2-yl)-amine] | inactive | – |
| CNc1nc(-c2ccc(OC)c(OC)c2)cs1 [Compound 5, 4-(3,4-dimethoxyphenyl)-N-methyl-1,3-thiazol-2-amine] | without significant activity | – |
| COc1ccc(-c2csc(Nc3cccc(C)n3)n2)cc1OC [Compound 4, [4-(3,4-dimethoxyphenyl)-thiazol-2-yl]-(6-methylpyridin-2-yl)-amine] | equipotent to 3 | – |
